#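 A five-concentration, 48-hour dose response in 96-well plates underlies each endpoint, interpolated linearly between surrounding concentrations. GI50 is the concentration that inhibits growth by half. TGI denotes the concentration required for complete inhibition of growth.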
# Key:
# Assay in all cases: NCI anticancer screen, dose series, 48 h
# KM12 colon = system: KM12 colon
# SNB-75 CNS = system: SNB-75 CNS
# HCT-116 colon = system: HCT-116 colon
# SF-295 CNS = system: SF-295 CNS
# IGROV1 ovarian = system: IGROV1 ovarian
# OVCAR-3 ovarian = system: OVCAR-3 ovarian
# OVCAR-4 ovarian = system: OVCAR-4 ovarian
# SR leukemia = system: SR leukemia
# LOX IMVI melanoma = system: LOX IMVI melanoma
# DU-145 prostate = system: DU-145 prostate
Compound,TGI (KM12 colon) [µM],TGI (SNB-75 CNS) [µM],TGI (HCT-116 colon) [µM],TGI (SF-295 CNS) [µM],TGI (IGROV1 ovarian) [µM],TGI (OVCAR-3 ovarian) [µM],TGI (OVCAR-4 ovarian) [µM],TGI (SR leukemia) [µM],TGI (LOX IMVI melanoma) [µM],TGI (DU-145 prostate) [µM],GI50 (LOX IMVI melanoma) [µM],GI50 (KM12 colon) [µM],GI50 (SNB-75 CNS) [µM],GI50 (DU-145 prostate) [µM],GI50 (HCT-116 colon) [µM],GI50 (SF-295 CNS) [µM],GI50 (IGROV1 ovarian) [µM],GI50 (OVCAR-3 ovarian) [µM],GI50 (OVCAR-4 ovarian) [µM],GI50 (SR leukemia) [µM]
c1ccc2c(c1)Cc1c(Cc3csc4ccccc34)ccc3cccc-2c13,> 100,> 100,> 100,> 100,> 100,> 100,> 100,–,–,–,–,–,–,–,–,–,–,–,–,–
COc1cc(/C=C(\NC(=O)c2ccccc2)c2nc3ncncc3[nH]2)cc(OC)c1OC,> 100,–,–,> 100,> 100,> 100,> 100,> 100,–,–,–,–,–,–,–,–,–,–,–,–
COc1ccc(/C=C/C(=O)c2c(-c3ccccc3)nn(C)c(=O)c2N2CCOCC2)cc1,–,–,> 100,> 100,> 100,–,–,–,> 100,–,–,–,–,–,–,–,–,–,–,–
COc1ccccc1/C=C\C(=O)C1COCN1 (configuration not stated),24.6,41.3,> 100,50.8,64.6,34.2,53.2,–,38.1,35.6,–,–,–,–,–,–,–,–,–,–
CC1(C)C(=O)C(C)(C)C1=NNC(N)=S,> 100,> 100,> 100,> 100,> 100,> 100,> 100,> 100,> 100,–,–,–,–,–,–,–,–,–,–,–
OC1CCCC2CCC[N-]C12.OC1CCCC2CCC[N-]C12.[O]=[V][OH] (configuration not stated),> 100,> 100,11.5,76.9,12.2,2.27,> 100,–,33.6,> 100,6.09,7.24,32.8,19.7,2.66,9.84,2.37,0.359,3.05,–
CC1(C)c2ccccc2N2O[C@@H]3C(=O)N(c4ccccc4)C(=O)[C@@H]3C21c1ccccc1 (some centres not stated),> 100,> 100,–,> 100,> 100,> 100,–,–,> 100,–,–,–,–,–,–,–,–,–,–,–
CCc1cc2c(O)c(c1)Cc1cc(CC)cc(c1O)Cc1cc(CC)cc(c1O)Cc1cc(CC)cc(c1O)Cc1cc(CC)cc(c1O)Cc1cc(CC)cc(c1O)Cc1cc(CC)cc(c1O)C2,> 100,61.4,> 100,> 100,> 100,> 100,> 100,–,–,–,–,–,–,–,–,–,–,–,–,–
Nc1nc2c(-c3ccc([N+](=O)[O-])cc3)nnn2c2ccccc12,> 100,–,–,> 100,> 100,95.3,> 100,–,> 100,–,–,–,–,–,–,–,–,–,–,–
N#C/C(=C1\OC(=N)C(c2ccccc2)C1=O)c1ccccc1 (configuration not stated),> 100,> 85.7,31.6,> 100,> 80.7,> 67.7,> 100,–,91.5,–,–,–,–,–,–,–,–,–,–,–
O=C(N/C(=C\c1ccccc1O)c1nc2ccccc2[nH]1)c1ccccc1,> 100,36.1,> 100,–,> 100,> 100,> 100,–,> 100,–,–,–,–,–,–,–,–,–,–,–
C#CC1(O)C(COP(=O)(O)OCC2OC(n3cc(F)c(=O)[nH]c3=O)CC2O)OC(n2ccc(N)nc2=O)C1O (configuration not stated),> 23.8,–,> 100,4.26,> 100,0.746,–,–,–,> 100,< 0.01,< 0.01,–,< 0.01,< 0.01,< 0.01,0.0398,< 0.01,–,–
C(=C\C(Sc1ccccc1)c1ccccc1)/NNC1=NC(c2ccccc2)C(c2ccccc2)=NN1 (configuration not stated),> 100,> 100,> 100,> 100,> 100,> 100,> 100,77.7,> 100,–,–,–,–,–,–,–,–,–,–,–
NS(=O)(=O)c1ccc(NC(=O)C2C(=O)C(=O)N(c3ccc(S(N)(=O)=O)cc3)C2=O)cc1 (configuration not stated),–,> 100,> 100,> 100,> 100,> 100,> 100,> 100,> 100,–,–,–,–,–,–,–,–,–,–,–
COc1ccc(OC)c(/C=C2\CCc3ccccc3C2=O)c1,12.5,3.52,20.6,12.4,47.8,7.67,22.9,–,20.1,–,–,–,–,–,–,–,–,–,–,–
O=C(CC1C(=O)Nc2ccccc2S1(=O)=O)Nc1ccc(Cl)cc1 (configuration not stated),–,37.6,> 100,> 100,37.7,39.4,77.2,30.1,41.8,–,–,–,–,–,–,–,–,–,–,–
Cc1ccc(/C=C/C(=O)c2sc(-n3nc(-c4ccccc4)cc3-c3ccccc3)nc2C)cc1,> 100,> 100,–,> 100,> 100,> 100,–,–,> 100,–,–,–,–,–,–,–,–,–,–,–

Compound,TGI (KM12 colon) [µM],TGI (SNB-75 CNS) [µM],TGI (HCT-116 colon) [µM],TGI (SF-295 CNS) [µM],TGI (IGROV1 ovarian) [µM],TGI (OVCAR-3 ovarian) [µM],TGI (OVCAR-4 ovarian) [µM],TGI (SR leukemia) [µM],TGI (LOX IMVI melanoma) [µM],TGI (DU-145 prostate) [µM],GI50 (LOX IMVI melanoma) [µM],GI50 (KM12 colon) [µM],GI50 (SNB-75 CNS) [µM],GI50 (DU-145 prostate) [µM],GI50 (HCT-116 colon) [µM],GI50 (SF-295 CNS) [µM],GI50 (IGROV1 ovarian) [µM],GI50 (OVCAR-3 ovarian) [µM],GI50 (OVCAR-4 ovarian) [µM],GI50 (SR leukemia) [µM]
O=C1C=C2CCCC2C(C(=O)O)(C(=O)O)C1 (configuration not stated),> 100,> 100,> 100,> 100,> 100,> 100,> 100,–,> 100,–,–,–,–,–,–,–,–,–,–,–
COc1cc([C@@H]2c3cc4c(cc3[C@@H](OC(=O)c3cccc(N)c3)C3COC(=O)[C@@H]32)OCO4)cc(OC)c1O (some centres not stated),> 73.5,> 100,> 100,35.4,> 64.8,> 100,> 100,17.9,33.8,–,–,–,–,–,–,–,–,–,–,–
Cc1ccc(N=C2N=C(N3CC(C)OC(C)C3)c3ccccc32)cc1 (configuration not stated),62.5,88.5,48.8,> 100,88.8,73.4,52.1,–,> 100,–,–,–,–,–,–,–,–,–,–,–
CCN(CC)CCN1c2nc3ccccc3cc2Sc2cc3ccccc3nc21,5,6.22,2.78,3.45,2.48,4.9,13.4,–,3.03,11.3,1.57,2.01,1.32,3.59,1.4,1.56,0.473,1.85,2.74,–
CCCCNC(=S)OCCC(C)CCCC(C)C (configuration not stated),> 100,> 100,> 100,> 100,> 100,–,> 100,> 100,> 100,–,–,–,–,–,–,–,–,–,–,–
CC(C)OC/N=C(/N)NC#N,> 100,> 100,> 100,> 100,> 100,> 100,> 100,49.6,43.7,–,–,–,–,–,–,–,–,–,–,–
CCCCCCCCCCNCCSS(=O)(=O)O,2.95,4.22,3.85,3.65,17.6,3.46,24.4,–,3.26,3.28,1.69,1.55,2.23,1.82,2.01,1.83,4.82,1.98,9.91,–
CCCCCCCCCCCCCCCC(=O)OCCOCCOCCOCCOCCOC(=O)CCCCCCCCCCCCCCC,> 100,–,> 100,> 100,> 100,> 100,> 100,> 100,> 100,–,–,–,–,–,–,–,–,–,–,–
CCOC(=O)c1[nH]c2cc(OC)c(OC)cc2c1CN(C)C,> 100,> 100,> 100,> 100,> 100,–,> 100,> 100,> 100,–,–,–,–,–,–,–,–,–,–,–
O=C(Nc1ccc(Cl)cc1C(=O)O)c1ccc([N+](=O)[O-])cc1,36.2,> 100,36.9,51.1,45.5,56.6,47.1,–,37.6,–,–,–,–,–,–,–,–,–,–,–
C[N+](C)(C)c1cc[c]([Sn]([c]2ccc([N+](C)(C)C)cc2)([c]2ccc([N+](C)(C)C)cc2)[c]2ccc([N+](C)(C)C)cc2)cc1,> 100,> 100,> 100,> 100,> 100,> 100,> 100,> 100,> 100,–,> 100,> 100,> 100,–,> 100,> 100,> 100,> 100,> 100,> 100
O=C(CCC(=O)Nc1cccc(C(F)(F)F)c1)CC(=O)c1ccc2ccccc2c1,> 100,–,> 100,> 100,> 100,> 100,> 100,–,> 100,–,–,–,–,–,–,–,–,–,–,–
CC1=CP(=O)(c2ccccc2)C=C(C)C1=C(Cl)Cl (configuration not stated),14.9,> 100,10.1,34.6,34.1,30.9,26,–,14.9,–,–,–,–,–,–,–,–,–,–,–
CC(=O)NNc1nc(C)c(C(=O)NNC(=O)C(=O)Nc2c([N+](=O)[O-])ccc(C)c2C)s1,> 100,–,> 100,> 100,> 100,> 100,> 100,> 100,> 100,–,–,–,–,–,–,–,–,–,–,–
N#CC1(C#N)C=CC(=C2OCC3CCCN23)C=C1 (configuration not stated),> 100,> 100,> 100,> 100,> 100,–,> 100,–,> 100,–,–,–,–,–,–,–,–,–,–,–
COCCc1n(Cc2ccc3ccccc3c2)c2ccccc2[n+]1Cc1ccc2ccccc2c1,1.64,–,–,–,–,1.72,1.34,–,–,2.33,–,0.415,–,1.06,–,–,–,0.451,0.329,–

# From PubChem BioAssay (NCI)
